Laboratory results: patent publication US20030220524A1, “Sulfur containing compounds” (priority 2000, published 2003)

What was measured:
mammalian cells = test: Antiproliferative activity, summary grouping on the basis of MTT assays; type: cell-based; conditions: in words
Procedure: Adherent cells were seeded at 67×10^3 cells/mL in a 96 well plate (Falcon, Mississauga, Ontario) the day prior to exposure to compound. Suspension cells were seeded at 27×10^4 cells/mL in a 96 well plate the day of exposure to compound. Mononucleated, T-cell depleted normal bone marrow cells were seeded at 67×10^4 cells/mL in a 96 well plate the day of exposure to compound. Compounds and solvent control were added to cells and assayed in triplicate or sextuplet. Following 48 h of incubation at 37° C. with 5% CO2, 40 μL of a 5 mg/mL solution of 3-[4,5-dimethylthiazol-2-yl]-2,5-diphenyltetrazolium bromide (MTT) substrate (Sigma) in Dulbecco's phosphate-buffered saline (D-PBS) was added. After 4 h of incubation at 37° C. with 5% CO2, the resulting violet formazan precipitate was solubilized by the addition of 80 μL of a 0.01 M HCI, 10% sodium dodecyl sulfate (SDS; Sigma) solution overnight at 37° C. with 5% CO2. The plates were then analyzed using the BioRad Benchmark Microplate Reader (BioRad Laboratories, Hercules, Calif.) at 570 nm to determine the optical density of the samples. MTT data was analyzed using Prism 3.0 (GraphPad Software, Inc., San Diego, Calif.) by the Chou-Talalay method. MTT graphs shown are a representative experiment.
Initially, the efficacy of ten synthetic OSCs was explored for their antiproliferative activity against mammalian cells. […]

KK leukemic cell line = test: TUNEL, flow cytometry; type: cell-based, human; conditions: 48 h
Procedure: (§1) Adherent cell lines were plated at 35×10^4 cells/60 cm^2 dish the day before exposure to compound. Suspension cells were seeded at 25×10^4 cells/mL in a 6 well dish (Falcon) the day of exposure to compound. Mononucleated, T-cell depleted normal bone marrow cells were seeded at 50×10^4 cells/mL in a 6 well dish the day of exposure to compound. Cells were exposed to solvent control or approximate MTT50 and MTT30 concentrations of the compound. After 48 h of exposure to the compound, cells were harvested and fixed with a final concentration of 4% formaldehyde. Fixed cells were stored at −20° C. in 70% ethanol for no more than 5 days. Approximately 10^5 cells were pelleted and labeled with 0.02 mM Biotin-dUTP and 12.5 U TdT enzyme in a 1× reaction buffer (200 mM potassium cacodylate, 25 mM Tris-HCl, 25 μg/mL bovine serum albumin, pH 6.6), 2.5 mM CoCl2 and 0.01 mM dTTP (Roche Molecular Biochemicals, Laval, QC, Canada) for 45 min at 37° C. Samples were washed and incubated in 200 μL of 1:1000 fluorescein isothiocyanate (FITC)-conjugated avidin (Sigma) in 4×SSC, 5% skim milk powder and 0.05% Tween-20 (Sigma). Following 1 h of mixing at room temperature, the samples were washed and resuspended in 500 μL of D-PBS containing 2.5 μg/mL DNase-free RNase (Boehringer Mannheim) and 10 μg/mL PI. Following a 30 min incubation at room temperature, cells were analyzed using a XL-MCL flow cytometer (Coulter Corporation, Miami, Fla.) and a FACScalibar cytometer (Becton Dickinson, San Jose, Calif.). Profiles shown are representative of one experiment.
as §1, with “? s” for “Cells”, “appr ? nate” for “approximate”, “of” for “of the”, “Pl.” for “PI.”

Row | Structure (SMILES) | Antiproliferative activity (grouping in Summary of Results and Notes to the data sets) (mammalian cells) | % TUNEL +ve (KK leukemic cell line; dose 25 uM) | % TUNEL +ve (KK leukemic cell line; dose 50 uM) | % TUNEL +ve (KK leukemic cell line; dose 100 uM)
1 | CS(C)(=O)=O [Compound A, dimethyl sulfone] | No anti-proliferative properties |  |  | 
2 | CCC(=O)OCSSc1ccccc1 [Compound Q, 1-phenyl-1,2-dithiapropyl propionate] |  | 43% | 61% | 
3 | CSSCC(=O)c1ccccc1 [Compound P, phenacyl methyl disulphide] |  |  | 47% | 78%
4 | CSSCCS(C)(=O)=O [F, 2,3,6-trithiaheptane 6,6,-dioxide] | Anti-proliferative Activity |  |  | 
